Assay results reported in patent publication EP4772497A1, “POLYMORPHS OF NITROGEN-CONTAINING HETEROCYCLIC COMPOUNDS, AND USES THEREOF” (BNH Research Co., Ltd., priority 2023, dated 2025).
≈ marks a conversion by molar mass, not a printed value.

Assays:
[1] = Competitive equilibrium experiments for crystalline forms A and C (XRPD, DSC); type: physicochemical; conditions: forms A and C slurried in acetone, acetonitrile, ethyl acetate, isopropyl acetate, acetone/water (35:65) at 5°C, 25°C, 50°C for 1 week
Protocol: Competitive equilibrium experiments were performed in various solvent systems to determine the relative stability of crystalline forms A and C.
About 15 mg of crystalline form A and 15 mg of crystalline form C were added to 0.2 mL of a saturated solution of each of selected solvents (acetone, acetonitrile, ethyl acetate, isopropyl acetate, and acetone/water (v:v=35:65)) (Table 9). The obtained suspensions were stirred at 5°C, 25°C, and 50°C, respectively, for 1 week. The solid portion (wet cake) was isolated by centrifugal filtration and analyzed by XRPD and DSC, and the results are shown in Figs. 7a to 7f.

[2] = Wet granulation simulation experiment (XRPD); type: physicochemical; conditions: ground, dried 10 minutes
Protocol: Water or ethanol was added dropwise to about 10 mg of crystalline form C until it was sufficiently wetted. The wet sample was gently ground using a mortar and pestle. After the granulation, the sample was dried under ambient conditions for 10 minutes. Potential changes in form and crystallinity were evaluated by XRPD.
The XRPD results of the wet granulation simulation experiments are shown in Fig. 12, where GNSE1 and GNSE2 represent experiment IDs for water and ethanol, respectively.

[3] = test system: C57BL/6J mice; assay: TC synaptic potency and GABA/AMPA ratio in the barrel cortex after oral administration; type: in vivo; conditions: 8-week-old C57BL/6J mice, 1 mg/kg orally, barrel cortex (layer 4)
Protocol: Following oral administration of crystalline form C, the efficacy of the compound was evaluated by measuring the potency and the GABA/AMPA ratio in the barrel cortex.
Crystalline form C was orally administered at a dose of 1 mg/kg to 8-week-old C57BL/6J mice. For the control group, 200 µL of a mixed solution of DMSO (10):PEG400 (44):saline (55) was orally administered as a vehicle. Experiments were performed on five mice each for the control (vehicle) group and the compound-treated group.

[4] = Compression simulation experiment (XRPD); type: physicochemical; conditions: compressed for 5 minutes at 2 MPa, 5 MPa, and 10 MPa
Protocol: About 5 mg of crystalline form C was compressed for 5 minutes at 2 MPa, 5 MPa, and 10 MPa using a hydraulic press. Potential changes in form and crystallinity were evaluated by XRPD.
The XRPD results of the compression simulation experiments are shown in Fig. 10, where CSE1, CSE2, and CSE3 represent experiment IDs for pressures of 2 MPa, 5 MPa, and 10 MPa, respectively.

[5] = Approximate solubility of crystalline form C in dissolution media by visual observation; type: physicochemical; conditions: thermodynamic from solid, 37°C per table caption (method: 25°C)
Protocol: About 4 mg of crystalline form C was weighed into a 4 mL or 8 mL glass vial, and 4 to 9 mL of dissolution medium was added to dissolve the drug substance at 25°C. The approximate solubility was determined by visual observation.
The solvents and solubility results are shown in Table 11 (solubility of crystalline form C at 37°C).

[6] = Dry grinding simulation experiment (XRPD); type: physicochemical; conditions: manually ground for 1, 3, and 5 minutes, mortar and pestle
Protocol: About 5 mg of crystalline form C was manually ground for 1, 3, and 5 minutes using a mortar and pestle. Potential changes in form and crystallinity were evaluated by XRPD.
The XRPD results of the dry grinding simulation experiments are shown in Fig. 11, where GSE1, GSE2, and GSE3 represent experiment IDs for grinding for 1 minute, 3 minutes, and 5 minutes, respectively.

[7] = Hygroscopicity by dynamic vapor sorption (DVS); type: physicochemical
Protocol: Instrument model: SMS DVS Advantage Dynamic Vapor Sorption System Test method: A sample (10 to 15 mg) is taken and placed on a DVS sample pan, and measurement is performed. Detailed DVS parameters are as follows. Temperature: 25°C Equilibrium dm/dt = 0.002%/min: (minimum: 60 min, maximum: 240 min) Relative humidity (RH (%)) measurement gradient: 10% Relative Humidity (RH (%)) measurement gradient cycle: 40-0-95-0-40% The following description provides the criteria for determining hygroscopicity: [Table 6]
The moisture adsorption and desorption behavior of crystalline form C was investigated by the DVS test of Experimental Method 5. XRPD was performed to confirm any change in form after the DVS test.

## C[C@@H]1CC[C@H](C(=O)O)CN1C(=O)Cc1ccc(F)cc1Cl [Crystalline form C, (3S,6R)-1-(2-(2-chloro-4-fluorophenyl)acetyl)-6-methylpiperidine-3-carboxylic acid]
[1]
  relative stability of crystalline forms A and C: most thermodynamically stable crystalline form below 50 °C
[2]; wetted with ethanol
  change in form and crystallinity on granulation with ethanol: no change in form, but its crystallinity decreased significantly
[2]; wetted with water
  change in form and crystallinity on granulation with water: without any change in form or apparent decrease in crystallinity
[3]
  TC synaptic potency: increase TC synaptic potency
  balance of excitation/inhibition (GABA/AMPA ratio): maintaining the balance of excitation/inhibition
[4]
  change in form and crystallinity on compression: without any change in form or apparent decrease in crystallinity
[5]; aqueous buffer, ES2: pH 4.5 acetate buffer (50mM)
  solubility: 0.9 to 1 mg/mL (≈ 2.87 to 3.19 mM)
[5]; aqueous buffer, ES3: pH 6.8 phosphate buffer (50mM)
  solubility: 1.8 to 2 mg/mL (≈ 5.74 to 6.37 mM)
[5]; simulated gastric fluid, ES1: pH 1.2 HCl buffer (0.2N)
  solubility: 0.5 to 0.6 mg/mL (≈ 1.59 to 1.91 mM)
[5]; simulated gastric fluid, ES4: SGF, pH 2.0
  solubility: 0.4 to 0.5 mg/mL (≈ 1.27 to 1.59 mM)
[5]; ES5: FaSSIF-v1, pH 6.5
  solubility: 1.8 to 2 mg/mL (≈ 5.74 to 6.37 mM)
[5]; ES6: FeSSIF-v1, pH 5.0
  solubility: 1.8 to 2 mg/mL (≈ 5.74 to 6.37 mM)
[5]; ES7: Water
  solubility: 0.6 to 0.7 mg/mL (≈ 1.91 to 2.23 mM)
[6]
  change in form and crystallinity on grinding: no change in form, but its crystallinity decreased significantly
[7]; DVS, 25°C
  Classification of hygroscopicity: non-hygroscopic
[7]; Relative humidity 0% at 25°C
  Weight change (%) in 1st adsorption: 0%
  Weight change (%) in 1st desorption: 0%
  Weight change (%) in 2nd adsorption: 0%
  Weight change (%) in 2nd desorption: 0%
[7]; Relative humidity 10% at 25°C
  Weight change (%) in 1st adsorption: 0%
  Weight change (%) in 1st desorption: 0%
  Weight change (%) in 2nd adsorption: 0%
  Weight change (%) in 2nd desorption: 0%
[7]; Relative humidity 20% at 25°C
  Weight change (%) in 1st adsorption: 0%
  Weight change (%) in 1st desorption: 0%
  Weight change (%) in 2nd adsorption: 0%
  Weight change (%) in 2nd desorption: 0%
[7]; Relative humidity 30% at 25°C
  Weight change (%) in 1st adsorption: 0%
  Weight change (%) in 1st desorption: 0%
  Weight change (%) in 2nd adsorption: 0%
  Weight change (%) in 2nd desorption: 0%
[7]; Relative humidity 40% at 25°C
  Weight change (%) in 1st adsorption: 0%
  Weight change (%) in 1st desorption: 0%
  Weight change (%) in 2nd adsorption: 0%
  Weight change (%) in 2nd desorption: 0.1%
[7]; Relative humidity 50% at 25°C
  Weight change (%) in 1st adsorption: 0.1%
  Weight change (%) in 2nd desorption: 0.1%
[7]; Relative humidity 60% at 25°C
  Weight change (%) in 1st adsorption: 0.1%
  Weight change (%) in 2nd desorption: 0.1%
[7]; Relative humidity 70% at 25°C
  Weight change (%) in 1st adsorption: 0.1%
  Weight change (%) in 2nd desorption: 0.1%
[7]; Relative humidity 80% at 25°C
  Weight change (%) in 1st adsorption: 0.1%
  Weight change (%) in 2nd desorption: 0.1%
[7]; Relative humidity 90% at 25°C
  Weight change (%) in 1st adsorption: 0.1%
  Weight change (%) in 2nd desorption: 0.1%
[7]; Relative humidity 95% at 25°C
  Weight change (%) in 1st adsorption: 0.1%
  Weight change (%) in 2nd desorption: 0.1%
[7]; sample obtained after the DVS test
  crystalline form after the DVS test (XRPD): still exhibits crystalline pattern C
[7]; up to 95% RH, 25°C
  moisture uptake: less than 0.2%
